Data reported in patent US11891405B2, “Furo[3,4-b]pyrrole-containing BTK inhibitor” (CHIA TAI TIANQING PHARMACEUTICAL GROUP CO., LTD., priority 2018, dated 2024).
Like-named read-outs stand apart in the source and are kept apart here.

What was measured:
EGFR (WT) = EGFR (WT) (Homo sapiens, UniProt P00533); assay: Screening for EGFR inhibitory activity; format: biochemical
Description: 1.2 Screening for EGFR (Epidermal Growth Factor Receptor) Inhibitory Activity
50 ng/μL EGFR (WT) stock solution was diluted with kinase buffer (50 mM HEPES, 10 mM MgCl2, 2 mM DTT, 1 mM EGTA, 0.01% Tween 20), and 6 μL of 1.67× working solution at 0.01336 ng/μL (final concentration: 0.008 ng/μL) was added to each well. Different compounds dissolved in DMSO were added to the wells using a nanoliter pipettor, resulting in the final concentration of 1000 nM to […] (4-fold gradient for 7 concentrations in total), and blank control wells (without enzyme) and negative control wells (with enzyme, plus vehicle DMSO) were set, 2 replicate wells for each well. After enzyme was reacted with the compound or vehicle for 10 min, 5× ATP at 25 μM (final concentration: 5 μM) prepared with kinase buffer was mixed with 5× substrate at 0.5 μM (final concentration: 0.1 μM, ULight-poly GT) at a ratio of 1:1, and the mixture was added to each well at 4 μL/well. After being sealed with a film, the plate was incubated at room temperature for 2 h, then 5 μL of 4×EDTA at 40 mM (final concentration: 10 mM) was added to each well. After the plate was incubated for 5 min at room temperature, 5 μL of 4× detection reagent at 8 nM (final concentration: 2 nM, Eu-anti-phospho-tyrosine antibody) was added to each well, followed by incubation at room temperature for 1 h. The plate was read using a PE Envision multi-functional microplate reader (excitation: 320 nm, emission: 665 nm), and IC50 was calculated by four-parameter fitting.

[1] = In vivo pharmacokinetic assay on mouse; conditions: ICR mice; for MRT last: read-out: MRT(0-t)
Description: EXPERIMENTAL EXAMPLE 4: IN VIVO PHARMACOKINETIC ASSAY ON MOUSE
ICR mice weighing 18-22 g were randomly grouped into 9 mice in each group after being fed for 3-5 days, and administered intragastrically with related compound at a dose of 10 mg/kg, and injected intravenously with the test compound at a dose of 1 mg/kg, respectively. The test animals (ICR mice) were fasted for 12 h before administration and fed for 4 h after administration, and water was freely drunk before and after the experiment and during the experiment. After intragastric administration, 0.1 mL of the blood at the orbit was collected at 0.25 h (15 min), 0.5 h (30 min), 1 h, 2 h, 4 h, 6 h, 8 h, 10 h and 24 h, and after intravenous injection, 0.1 mL of the blood at the orbit was collected at 0.083 h (5 min), 0.167 h (10 min), 0.5 h (30 min), 1 h, 2 h, 6 h, 8 h, 10 h and 24 h. Each mouse was sampled at 3-4 time points, and 3 mice were sampled at each time point. Whole blood was collected and placed in centrifuge tubes containing EDTA-K2 and sodium fluoride, then transferred to a 4° C. centrifuge within 30 min and centrifuged at 4000 rpm for 10 min to separate the plasma. All plasma was collected and immediately stored at −20° C. for testing. 20 μL of a plasma test sample and a standard curve sample were pipetted into 300 μL of acetonitrile solution containing an internal standard (diazepam […]), and the mixture was shaken and mixed for 5 min, and centrifuged at 13,000 rpm for 10 min. 80 μL of supernatant was diluted with 80 μL of ultrapure water, and the mixture was mixed well, form which 1 μL of the sample was pipetted and analyzed by LC/MS/MS, and a chromatogram was recorded. Oral and intravenous exposure of the compounds disclosed herein was evaluated by pharmacokinetic experiments in mice and the results are shown in Table 4.

OCI-LY10 cells = assay: In vivo pharmacodynamic study, OCI-LY10 xenograft; set-up: species or system NOD-SCID mice; conditions: for TGI (%): tumor growth inhibition from tumor weight, 23 days; for TGI (%) / d0 TV Mean ± SD: 50 mg/kg bid i.g.; for d0 TV Mean ± SD: tumor volume at day 0 (grouping); for d21 TV Mean ± SD: tumor volume at day 21, 50 mg/kg bid i.g.; for d23 TV Mean ± SD: tumor volume at day 23, 50 mg/kg bid i.g.
Description: EXPERIMENTAL EXAMPLE 5: IN VIVO PHARMACODYNAMIC STUDY
OCI-LY10 cells were subcutaneously grafted (concentration: 1×10^8/mL×0.1 mL/mice) in NOD-SCID mice at the right side armpit (the inoculated site was shaved upon grafting) under aseptic conditions. After subcutaneous grafting, the animals were grouped when the tumor volume reached about 100-300 mm^3:
Model group: vehicle: 6 mice; I-1: 6 mice, 50 mg/kg, bid, i.g.; I-3: 6 mice, 50 mg/kg, bid, i.g.
The vehicle or compound was administered by intragastric administration at a volume of 10 mL/kg, twice daily, for 23 days. The tumor volume was measured 2-3 times per week, and the mice were weighed at the same time, with the data recorded. Animal behavior was observed daily. After all administration was completed, the animals were executed, stripped of tumors and weighed.
The tumor volume and the tumor growth inhibition were calculated using the following formulas: Tumor volume(TV)=(Length×Width^2)/2. Tumor growth inhibition(TGI)=(1−tumor weight in treatment group/tumor weight in model group)×100%.

EGFR (WT), sequence (P00533 25-1210, species assumed): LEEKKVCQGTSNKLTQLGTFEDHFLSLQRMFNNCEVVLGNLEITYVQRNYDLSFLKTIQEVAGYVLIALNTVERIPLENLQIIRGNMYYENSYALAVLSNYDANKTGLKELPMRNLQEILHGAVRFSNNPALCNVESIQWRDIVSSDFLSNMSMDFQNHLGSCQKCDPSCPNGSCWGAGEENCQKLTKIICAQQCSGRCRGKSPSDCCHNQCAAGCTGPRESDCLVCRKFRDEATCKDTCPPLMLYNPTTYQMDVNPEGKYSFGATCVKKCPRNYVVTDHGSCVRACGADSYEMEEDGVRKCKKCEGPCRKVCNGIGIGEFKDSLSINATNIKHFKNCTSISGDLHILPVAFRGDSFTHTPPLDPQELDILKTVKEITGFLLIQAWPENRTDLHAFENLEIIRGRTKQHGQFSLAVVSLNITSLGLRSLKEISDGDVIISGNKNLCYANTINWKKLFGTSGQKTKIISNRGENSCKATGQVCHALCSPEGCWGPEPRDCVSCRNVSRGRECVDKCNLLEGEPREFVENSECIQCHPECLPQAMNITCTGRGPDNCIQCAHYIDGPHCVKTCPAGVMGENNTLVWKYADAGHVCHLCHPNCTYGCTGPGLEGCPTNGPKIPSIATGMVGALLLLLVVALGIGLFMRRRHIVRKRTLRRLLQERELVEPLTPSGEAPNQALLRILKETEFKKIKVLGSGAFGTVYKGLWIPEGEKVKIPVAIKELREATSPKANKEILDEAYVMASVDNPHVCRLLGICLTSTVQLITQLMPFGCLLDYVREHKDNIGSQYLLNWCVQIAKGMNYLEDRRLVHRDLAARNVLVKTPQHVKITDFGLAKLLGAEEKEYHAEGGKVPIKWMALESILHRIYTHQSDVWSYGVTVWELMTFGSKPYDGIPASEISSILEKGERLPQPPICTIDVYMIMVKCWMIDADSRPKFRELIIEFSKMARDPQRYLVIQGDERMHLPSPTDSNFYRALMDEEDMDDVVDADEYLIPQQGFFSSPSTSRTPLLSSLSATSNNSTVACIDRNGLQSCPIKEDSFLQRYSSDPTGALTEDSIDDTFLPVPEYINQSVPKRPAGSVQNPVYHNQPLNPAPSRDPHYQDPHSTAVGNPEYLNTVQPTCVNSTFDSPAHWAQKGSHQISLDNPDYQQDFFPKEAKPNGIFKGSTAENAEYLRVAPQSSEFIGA

Question: For CC#CC(=O)N1[C@@H]2COC[C@@H]2C[C@H]1c1nc(-c2ccc(C(=O)Nc3ccccn3)cc2)c2c(N)nccn12 [Compound I-1, 4-(8-amino-3-((2S,3aR,6aS)-1-(but-2-ynoyl)hexahydro-1H-furo[3,4-b]pyrrol-2-yl)imidazo [1,5-a]pyrazin-1-yl)-N-(pyridin-2-yl)benzamide], which IC50 (EGFR (WT)) is on record?
Answer: The IC50 was greater than 1 µM.

Question: What about the t1/2z ([1]; ig 10 mg/kg) of the same compound?
Answer: The t1/2z was 142 min.

Question: And the CLz ([1]; iv 1 mg/kg)?
Answer: Its CLz is 340 mL/min/kg.

Question: What about the t1/2z ([1]; iv 1 mg/kg) of the same compound?
Answer: Its t1/2z is 43.8 min.

Question: What about the bioavailability ([1]; mouse, plasma, oral, ig 10 mg/kg vs iv 1 mg/kg, read-out: Absolute bioavailability F %) of the same compound?
Answer: The bioavailability was 72.4%.

Question: What about the AUC(0-inf) ([1]; mouse, plasma, po, ig 10 mg/kg) of the same compound?
Answer: The AUC(0-inf) was 315 ng·h/mL.

Question: What about the AUC(0-t) ([1]; mouse, plasma, po, ig 10 mg/kg) of the same compound?
Answer: The AUC(0-t) was 315 ng·h/mL.

Question: And the Cmax ([1]; mouse, plasma, po, ig 10 mg/kg)?
Answer: The Cmax was 92.7 ng/mL.

Question: And the Tmax ([1]; mouse, plasma, po, ig 10 mg/kg)?
Answer: The Tmax was 15 min.

Question: What about the MRT last ([1]; mouse, plasma, po, ig 10 mg/kg) of the same compound?
Answer: Its MRT last is 184 min.

Question: And the AUC(0-inf) ([1]; mouse, plasma, iv 1 mg/kg)?
Answer: The AUC(0-inf) was 43.6 ng·h/mL.

Question: And the AUC(0-t) ([1]; mouse, plasma, iv 1 mg/kg)?
Answer: Its AUC(0-t) is 43.6 ng·h/mL.

Question: And the MRT last ([1]; mouse, plasma, iv 1 mg/kg)?
Answer: The MRT last was 31.2 min.

Question: And the Vd ([1]; mouse, plasma, iv 1 mg/kg, read-out: Vz)?
Answer: The Vd was 21.5 L/kg.

Question: And the “TGI (%)” value (OCI-LY10 cells)?
Answer: Its value is 79.4%.

Question: And the “d0 TV Mean ± SD” value (OCI-LY10 cells)?
Answer: Its value is 176 ± 35 mm^3.

Question: What about the “d21 TV Mean ± SD” value (OCI-LY10 cells) of the same compound?
Answer: Its value is 742 ± 109 mm^3.

Question: And the “d23 TV Mean ± SD” value (OCI-LY10 cells)?
Answer: The value was 847 ± 189 mm^3.

Question: For C=CC(=O)N1[C@@H]2COC[C@@H]2C[C@H]1c1nc(-c2ccc(C(=O)Nc3ccccn3)cc2)c2c(N)nccn12 [Compound I-3, 4-(3-((2S,3AR,6AS)-1-ACRYLOYLHEXAHYDRO-1H-FURO[3,4-B]PYRROL-2-YL)-8-AMINOIMIDAZO [1,5-A]PYRAZIN-1-YL)-N-(PYRIDIN-2-YL)BENZAMIDE], which IC50 (EGFR (WT)) is on record?
Answer: The IC50 was 0.107 µM.

Question: And the “TGI (%)” value (OCI-LY10 cells)?
Answer: The value was 84.1%.

Question: What about the “d0 TV Mean ± SD” value (OCI-LY10 cells) of the same compound?
Answer: The value was 177 ± 16 mm^3.

Question: And the “d21 TV Mean ± SD” value (OCI-LY10 cells)?
Answer: Its value is 645 ± 202 mm^3.

Question: What about the “d23 TV Mean ± SD” value (OCI-LY10 cells) of the same compound?
Answer: The value was 647 ± 343 mm^3.

Question: With CC#CC(=O)N1[C@@H]2COC[C@@H]2C[C@H]1c1nc(-c2ccc(C(=O)Nc3cc(C(F)(F)F)ccn3)cc2F)c2c(N)nccn12 [Compound I-4, 4-(8-AMINO-3-((2S,3AR,6AS)-1-(BUT-2-YNOYL)HEXAHYDRO-1H-FURO[3,4-B]PYRROL-2-YL)IMIDAZO[1,5-A]PYRAZIN-1-YL)-3-FLUORO-N-(4-(TRIFLUOROMETHYL)PYRIDIN-2-YL)BENZAMIDE] as the compound, how does the IC50 (EGFR (WT)) read?
Answer: Its IC50 is greater than 1 µM.

Question: With Nc1nccn2c([C@@H]3C[C@H]4COC[C@H]4N3C(=O)C3CC3)nc(-c3ccc(C(=O)Nc4cc(C(F)(F)F)ccn4)cc3F)c12 [Compound I-7, 4-(8-AMINO-3-((2S,3AR,6AS)-1-(CYCLOPROPANECARBONYL)HEXAHYDRO-1H-FURO[3,4-B]PYRROL-2-YL)IMIDAZO[1,5-A]PYRAZIN-1-YL)-3-FLUORO-N-(4-(TRIFLUOROMETHYL)PYRIDIN-2-YL)BENZAMIDE] as the compound, how does the IC50 (EGFR (WT)) read?
Answer: The IC50 was greater than 1 µM.
